Earlier results in patent US20250099590A1, “HIGH DENSITY ULTRASOUND COUPLING GEL AND METHODS OF USE THEREOF” (ZetrOZ Systems LLC, priority 2023, published 2025).

Key:
[1] = tested on: musculoskeletal injuries; details: SAM with 2.5% diclofenac, after 4-weeks of daily home-use
[2] = tested on: osteoarthritis-induced pain; details: SAM treatment with 1% topical diclofenac, after 7 days

## O=C(O)Cc1ccccc1Nc1c(Cl)cccc1Cl [diclofenac]
[1]
  global health and function: global health and functional improvement
  pain: significant pain reduction
[2]
  Western Ontario McMaster Outcome (WOMAC): improved
  osteoarthritis-induced pain: significantly alleviated
